Values quoted from earlier work in PubChem BioAssay AID1259409 (Chemical Carcinogenesis Research Information System (CCRIS), 2018).

System: rodent chemically induced tumor inhibition, incidence and multiplicity
Assay: CCRIS tumor inhibitor studies

For CC1=C(/C=C/C(C)=C/C=C/C(C)=C/C(=O)NCC(C)O)C(C)(C)CCC1 (centres undefined), the “tumour outcome (control, treated, inhibition, significance)” value (Carcinogen: N-BUTYL-N-(4-HYDROXYBUTYL)NITROSAMINE, 3817-11-6, Dose [Inhibitor]: 1.5 MMOL/KG DIET DAILY FOR 108 D STARTING ONE WK AFTER THE FINAL CARCINOGEN DOSE (STUDY DURATION: 171 D), Route [Inhibitor]: ORAL, Species: MOUSE, Strain/Sex: BDF/MALE, Target Tissue: Type of Lesion: URINARY BLADDER: TRANSITIONAL CELL CARCINOMA, Dose [Carcinogen]: 5 MG, 2/WK FOR 9 WK, Promoter: NONE USED) is listed as 31/55 (56%), 20/55 (36%), 36%, p<0.05, the “tumour outcome (control, treated, inhibition, significance)” value (Carcinogen: N-BUTYL-N-(4-HYDROXYBUTYL)NITROSAMINE, 3817-11-6, Dose [Inhibitor]: 1.5 MMOL/KG/D IN DIET FOR 108 D STARTING 1 WK POST CARCINOGEN TREATMENT (STUDY DURATION: 171 D), Route [Inhibitor]: ORAL, Species: MOUSE, Strain/Sex: BDF/MALE, Target Tissue: Type of Lesion: URINARY BLADDER: TRANSITIONAL CELL CARCINOMA, Dose [Carcinogen]: 5 MG 2/WK FOR 9 WK, Promoter: NONE USED) is listed as 31/55 (56%), 20/55 (36%), 36%, p<0.05 and the “tumour outcome (control, treated, inhibition, significance)” value (Carcinogen: N-NITROSOBIS(2-OXOPROPYL)AMINE, 60599-38-4, Dose [Inhibitor]: 0.25 MMOL/KG OF DIET FOR 364 D STARTING 2 WK AFTER LAST CARCINOGEN DOSE (STUDY DURATION: 55 WK), Route [Inhibitor]: ORAL, Species: HAMSTER, Strain/Sex: SYRIAN/FEMALE, Target Tissue: Type of Lesion: LIVER: CARCINOMA, Dose [Carcinogen]: 20 MG/KG INJECTION GIVEN TWICE 1 WK APART, Promoter: NONE USED) is listed as 5%, 19%, -280%, not calculated. The “tumour outcome (control, treated, inhibition, significance)” value (Carcinogen: N-NITROSOBIS(2-OXOPROPYL)AMINE, 60599-38-4, Dose [Inhibitor]: 0.25 MMOL/KG OF DIET FOR 364 D STARTING 2 WK AFTER LAST CARCINOGEN DOSE (STUDY DURATION: 55 WK), Route [Inhibitor]: ORAL, Species: HAMSTER, Strain/Sex: SYRIAN/FEMALE, Target Tissue: Type of Lesion: PANCREAS: CARCINOMA, Dose [Carcinogen]: 20 MG/KG INJECTION GIVEN TWICE 1 WK APART, Promoter: NONE USED) was 38%, 15%, 61%, not calculated, the “tumour outcome (control, treated, inhibition, significance)” value (Carcinogen: N-NITROSOBIS(2-OXOPROPYL)AMINE, 60599-38-4, Dose [Inhibitor]: 0.25 MMOL/KG OF DIET FOR 364 D STARTING 2 WK AFTER LAST CARCINOGEN DOSE (STUDY DURATION: 55 WK), Route [Inhibitor]: ORAL, Species: HAMSTER, Strain/Sex: SYRIAN/MALE, Target Tissue: Type of Lesion: LIVER: CARCINOMA, Dose [Carcinogen]: 20 MG/KG INJECTION GIVEN TWICE 1 WK APART, Promoter: NONE USED) was 7%, 32%, -357%, not calculated and the “tumour outcome (control, treated, inhibition, significance)” value (Carcinogen: N-NITROSOBIS(2-OXOPROPYL)AMINE, 60599-38-4, Dose [Inhibitor]: 0.25 MMOL/KG OF DIET FOR 364 D STARTING 2 WK AFTER LAST CARCINOGEN DOSE (STUDY DURATION: 55 WK), Route [Inhibitor]: ORAL, Species: HAMSTER, Strain/Sex: SYRIAN/MALE, Target Tissue: Type of Lesion: PANCREAS: CARCINOMA, Dose [Carcinogen]: 20 MG/KG INJECTION GIVEN TWICE 1 WK APART, Promoter: NONE USED) was 34%, 24%, 29%, not calculated. The “tumour outcome (control, treated, inhibition, significance)” value (Carcinogen: N-NITROSOBIS(2-OXOPROPYL)AMINE, 60599-38-4, Dose [Inhibitor]: 0.5 MMOL/KG DIET FOR 357 D STARTING 2 WK AFTER LAST CARCINOGEN DOSE AND INTERRUPTED BY A 1 WK REST PERIOD OF VEHICLE ONL, Route [Inhibitor]: ORAL, Species: HAMSTER, Strain/Sex: SYRIAN/FEMALE, Target Tissue: Type of Lesion: LIVER: HEPATOCELLULAR CARCINOMA, Dose [Carcinogen]: 20 MG/KG INJECTION GIVEN TWICE 1 WK APART, Promoter: NONE USED) was 5%, 12%, -140%, not calculated, the “tumour outcome (control, treated, inhibition, significance)” value (Carcinogen: N-NITROSOBIS(2-OXOPROPYL)AMINE, 60599-38-4, Dose [Inhibitor]: 0.5 MMOL/KG DIET FOR 357 D STARTING 2 WK AFTER LAST CARCINOGEN DOSE AND INTERRUPTED BY A 1 WK REST PERIOD OF VEHICLE ONL, Route [Inhibitor]: ORAL, Species: HAMSTER, Strain/Sex: SYRIAN/FEMALE, Target Tissue: Type of Lesion: PANCREAS: CARCINOMA, Dose [Carcinogen]: 20 MG/KG INJECTION GIVEN TWICE 1 WK APART, Promoter: NONE USED) was 38%, 25%, 34%, not calculated and the “tumour outcome (control, treated, inhibition, significance)” value (Carcinogen: N-NITROSOBIS(2-OXOPROPYL)AMINE, 60599-38-4, Dose [Inhibitor]: 0.5 MMOL/KG DIET FOR 357 D STARTING 2 WK AFTER LAST CARCINOGEN DOSE AND INTERRUPTED BY A 1 WK REST PERIOD OF VEHICLE ONL, Route [Inhibitor]: ORAL, Species: HAMSTER, Strain/Sex: SYRIAN/MALE, Target Tissue: Type of Lesion: LIVER: HEPATOCELLULAR CARCINOMA, Dose [Carcinogen]: 20 MG/KG INJECTION GIVEN TWICE 1 WK APART, Promoter: NONE USED) was 7%, 12%, -71%, not calculated. For the same compound, the “tumour outcome (control, treated, inhibition, significance)” value (Carcinogen: N-NITROSOBIS(2-OXOPROPYL)AMINE, 60599-38-4, Dose [Inhibitor]: 0.5 MMOL/KG DIET FOR 357 D STARTING 2 WK AFTER LAST CARCINOGEN DOSE AND INTERRUPTED BY A 1 WK REST PERIOD OF VEHICLE ONL, Route [Inhibitor]: ORAL, Species: HAMSTER, Strain/Sex: SYRIAN/MALE, Target Tissue: Type of Lesion: PANCREAS: CARCINOMA, Dose [Carcinogen]: 20 MG/KG INJECTION GIVEN TWICE 1 WK APART, Promoter: NONE USED) was 34%, 29%, 15%, not calculated.
In the case of COc1ccc(-c2oc3c(OC)c(OC)c(OC)c(OC)c3c(=O)c2OC)cc1OC, the “tumour outcome (control, treated, inhibition, significance)” value (Carcinogen: 7,12-DIMETHYLBENZ[A]ANTHRACENE [57-97-6], Dose [Inhibitor]: 85 NMOL IN 0.1 ML ACETONE 2X/WK FOR 20 WK 1 HR PRIOR TO EACH PROMOTER DOSE (STUDY DURATION: 21 WK), Route [Inhibitor]: DERMAL, Species: MOUSE, Strain/Sex: ICR/FEMALE, Target Tissue: Type of Lesion: SKIN: PAPILLOMA, Dose [Carcinogen]: 390 NMOL IN 0.1 ML ACETONE ONCE (STUDY DURATION: 21 WK), Promoter: 12-O-TETRADECANOYL-13-ACETATE [16561-29-8]) is given as 100%, 80%, 20%, not calculated.
In the case of CCCCNC(=O)\C=C(C)/C=C/C=C(C)/C=C/C1=C(C)CCCC1(C)C, the “tumour outcome (control, treated, inhibition, significance)” value (Carcinogen: N-BUTYL-N-(4-HYDROXYBUTYL)NITROSAMINE, 3817-11-6, Dose [Inhibitor]: 1.5 MMOL/KG IN DIET FOR 133 D STARTING 1 WK AFTER THE LAST CARCINOGEN DOSE ( STUDY DURATION: 190 D), Route [Inhibitor]: ORAL, Species: MOUSE, Strain/Sex: BDF/MALE, Target Tissue: Type of Lesion: URINARY BLADDER: TRANSITIONAL CELL CARCINOMA, Dose [Carcinogen]: 7.5 MG 1/WK FOR 8 WK, Promoter: NONE USED) is listed as 21/100 (21%), 19/97 (20%), 5%, not significant.
In the case of CCCCNC(=O)/C=C(C)/C=C/C=C(C)/C=C/C1=C(C)CCCC1(C)C, the “tumour outcome (control, treated, inhibition, significance)” value (Carcinogen: N-BUTYL-N-(4-HYDROXYBUTYL)NITROSAMINE, 3817-11-6, Dose [Inhibitor]: 1.5 MMOL/KG DIET DAILY FOR 133 D STARTING ONE WK AFTER THE FINAL CARCINOGEN DOSE (STUDY DURATION: 190 D), Route [Inhibitor]: ORAL, Species: MOUSE, Strain/Sex: BDF/MALE, Target Tissue: Type of Lesion: URINARY BLADDER: TRANSITIONAL CELL CARCINOMA, Dose [Carcinogen]: 7.5 MG 1/WK FOR 8 WK, Promoter: NONE USED) is listed as 21/100 (21%), 19/100 (19%), 10%, not significant and the “tumour outcome (control, treated, inhibition, significance)” value (Carcinogen: N-BUTYL-N-(4-HYDROXYBUTYL)NITROSAMINE, 3817-11-6, Dose [Inhibitor]: 1.5 MMOL/KG IN DIET FOR 133 D STARTING 1 WK AFTER THE LAST CARCINOGEN DOSE (STUDY DURATION: 190 D), Route [Inhibitor]: ORAL, Species: MOUSE, Strain/Sex: DBF1/MALE, Target Tissue: Type of Lesion: URINARY BLADDER: TRANSITIONAL CELL CARCINOMA, Dose [Carcinogen]: 7.5 MG 1/WK FOR 8 WK, Promoter: NONE USED) is listed as 21/100 (21%), 19/100 (19%), 10%, not significant.
